Test results: article PMC11106456, “Increased Vasoactive Intestinal Peptide (VIP) in polycystic ovary syndrome patients undergoing IVF” (Frontiers in Endocrinology, 2024)

Assay: Biological stability of VIP in follicular fluid (ELISA, during defrosting)
Format: in vitro ADME
Settings: human follicular fluid samples from IVF patients, stored at -80°C, measured during defrosting process; read-out sandwich ELISA (450 nm); p<0.05; Supplementary Figure 1
Procedure: FF was obtained after oocyte retrieval during IVF according to the following procedure. The follicular fluid aspirated from each patient was pooled in conical bottomed 15 ml polypropylene tubes and centrifugated at 1000 g for 3 minutes at 21°C. The supernatant was collected, transported to the laboratory and stored at -80°C until further analysis.
The enzyme-linked immunosorbent assay (ELISA) used to quantify VIP in follicular samples was based on the principle of sandwich enzyme immunoassay. The quantification was performed following manufacturer’s protocol of ELISA kit (ELK Biotechnology CO., Ltd). Briefly, the microtiter plate provided has been pre-coated with an antibody specific for VIP. 100 μL of standards and samples were added to the appropriate microtiter plate wells and incubated for 80 minutes at 37°C. After the wash, 100 μl/well of biotin-conjugated antibody solution was added and incubated for 50 minutes at 37°C. […] Next, a final wash was performed and 90 μL of 5-5’-tetramethylbenzidine (TMB) substrate solution was added and the color development was monitored and quantified after the addition of sulfuric acid solution. The absorbance was measured spectrophotometrically at 450 nm by using microplate spectrophotometer (Labsystem Multiskan MS). […] The concentration of VIP in the samples was determined by comparing the optical density of the samples to the standard curve. […]

In the case of CC[C@H](C)[C@H](NC(=O)[C@H](CO)NC(=O)[C@H](CC(N)=O)NC(=O)[C@H](CC(C)C)NC(=O)[C@H](Cc1ccc(O)cc1)NC(=O)[C@H](CCCCN)NC(=O)[C@H](CCCCN)NC(=O)[C@@H](NC(=O)[C@H](C)NC(=O)[C@H](CCSC)NC(=O)[C@H](CCC(N)=O)NC(=O)[C@H](CCCCN)NC(=O)[C@H](CCCN=C(N)N)NC(=O)[C@H](CC(C)C)NC(=O)[C@H](CCCN=C(N)N)NC(=O)[C@@H](NC(=O)[C@H](Cc1ccc(O)cc1)NC(=O)[C@H](CC(N)=O)NC(=O)[C@H](CC(=O)O)NC(=O)[C@@H](NC(=O)[C@H](Cc1ccccc1)NC(=O)[C@@H](NC(=O)[C@H](C)NC(=O)[C@H](CC(=O)O)NC(=O)[C@H](CO)NC(=O)[C@@H](N)Cc1c[nH]cn1)C(C)C)[C@@H](C)O)[C@@H](C)O)C(C)C)C(=O)N[C@@H](CC(C)C)C(=O)N[C@@H](CC(N)=O)C(N)=O [VIP, Vasoactive intestinal peptide], the “VIP concentration in follicular fluid over time (biological stability)” value is reported as “significant reduction”.
